The results in this text go back to patent US20110015067A1, “Herbicidal Compositions Comprising Pyroxasulfone” (BASF SE, priority 2008, published 2011).

Where two headings read alike, the source gives them in different places.

The test system of experiment [1] is ELEIN (Eleusine indica). Description: post-emergence greenhouse test. The experiment is classed as in vivo. Conditions: use rate 6.25 g ai/ha, read-out: observed % activity. In short, it runs like this: (§1)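 Plants grown to 3–20 cm, then sprayed post-emergence with herbicides, solo or mixed, with or without safener, in water as carrier. Damage scored visually 0–100% versus untreated controls at 8 and/or 20 days after treatment.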

Experiment [2] relates to CHEAL (Chenopodium album). Kind of experiment: post-emergence greenhouse test. The experiment is classed as in vivo. Conditions: for inhibition at 6.25 g/ha / inhibition at 25 g/ha / inhibition at 50 g/ha: Chenopodium album, read-out: observed % activity; for inhibition at 6.25 g/ha: use rate 6.25 g ai/ha; for inhibition at 25 g/ha: use rate 25 g ai/ha; for inhibition at 50 g/ha: use rate 50 g ai/ha. The method in brief:
as §1

As for `Cn1nc(C(F)(F)F)c(CS(=O)(=O)C2=NOC(C)(C)C2)c1OC(F)F` [pyroxasulfone, 3-[5-(difluoromethoxy)-1-methyl-3-(trifluoromethyl)pyrazol-4-ylmethylsulfonyl]-4,5-dihydro-5,5-dimethyl-1,2-oxazole], the inhibition at 6.25 g/ha in experiment [1] (192 h, 8 DAT) amounted to 55%; in experiment [1] (480 h, 20 DAT) it was 90%; in experiment [2] (192 h, 8 DAT) it was 0%; in experiment [2] (480 h, 20 DAT) it was 0%. Further, the “observed activity in % destruction” value was determined as 0% in experiment [2] (6.25 g ai/ha, 8 DAT); 0% in experiment [2] (6.25 g ai/ha, 20 DAT); 20% in experiment [2] (12.5 g ai/ha, 8 DAT); 30% in experiment [2] (12.5 g ai/ha, 20 DAT); 35% in experiment [2] (25 g ai/ha, 8 DAT); 30% in experiment [2] (25 g ai/ha, 20 DAT). Moreover, the “observed activity in % destruction” value in experiment [2] (50 g ai/ha, 8 DAT) was 45%; in experiment [2] (50 g ai/ha, 20 DAT), 60%. Moreover, the inhibition at 25 g/ha was determined as 35% in experiment [2] (192 h, 8 DAT) and 30% in experiment [2] (480 h, 20 DAT). For the same molecule, the inhibition at 50 g/ha in experiment [2] (192 h, 8 DAT) stood at 45%; in experiment [2] (480 h, 20 DAT) it was 60%.
